This note sets out measurements from PMC8463443 (Acta Pharmaceutica Sinica. B, 2021).

Series [1] has as its system monkey kidney cell line Vero E6. As to the kind of experiment: Cell viability, Vero E6. Type of series: cell-based. As to conditions: monkey kidney cell line Vero E6 (Fig. S6).
A short description of series [2]: Water solubility of peptide. As to conditions: in words, method not given. Format: physicochemical.

Where no end group is shown, it is not given here.

Regarding KLTFLEYWAQLMQK [M3-2K], the “effect on viability of Vero E6” value in series [1] is “neither PMI-2K nor M3-2K had any effect on the viability”. In series [2], the water solubility entry was “improved peptide solubility”.
